Data published in patent US12552800B2, “Compounds for diagnosis” (AC IMMUNE SA, priority 2020, dated 2026).

What was measured:
[1] = target: T1, PD brain-derived a-syn aggregates (Homo sapiens, UniProt P37840); assay: Micro-radiobinding competition assay against Example-1 [^3H-1] (Table 8); format: binding
T1 construct: from tissue; host or cells: human PD donor brain, sarkosyl-insoluble 100,000 x g pellet
Summary of the method: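 Human PD brain-derived α-syn aggregates on microarray slides were co-incubated with 6 nM or 20 nM tritiated radioligand and unlabelled compound at 1 μM and 100 nM, some over 0.05 nM–2 μM. Bound signal read by real-time autoradiography; values are % competition, at least two technical replicates, mean of independent experiments.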

[2] = target: T2, Abeta pathological aggregates (Homo sapiens, UniProt P05067); assay: Radiobinding competition assay against [^3H]-Abeta-Ref on AD brain homogenates (example compound 4); format: binding; conditions: displacement of [^3H]-Abeta-Ref at 10 nM, AD brain-derived homogenates
T2 construct: Abeta pathological aggregates present in the human AD brain homogenates; from tissue; host or cells: human AD donor brain, Triton/sucrose-insoluble 100,000 x g pellet
Experimental: The procedure was adapted from the protocol described in Bagchi et al., 2013. Frozen tissue blocks from AD donors were thawed on ice and homogenized in high salt buffer (50 mM Tris-HCl pH 7.5, 0.75M NaCl, 5 mM EDTA) supplemented with protease inhibitors (Complete; Roche 11697498001) at 4° C. using a glass Dounce homogenizer. The homogenate was centrifuged at 100,000×g (38,000 RPM) in an ultracentrifuge (Beckman, XL100K) for one hour at 4° C. using a pre-cooled 70.1 rotor (Beckman, 342184). Pellets were resuspended in high salt buffer supplemented with 1% Triton X-100 and homogenized at 4° C. using a glass Dounce homogenizer. The homogenates were centrifuged again at 100,000×g (38,000 RPM, 70.1 rotor) for one hour at 4° C. Pellets were resuspended in high salt buffer supplemented with 1% Triton X-100 and 1 M sucrose and homogenized at 4° C. using a glass Dounce homogenizer. The homogenates were centrifuged at 100,000×g (38,000 RPM, 70.1 rotor) for one hour at 4° C. […]
A fixed concentration of AD insoluble fraction was incubated with a tritiated reference Abeta ligand ([^3H]-Abeta-Ref) at 10 nM and increasing concentrations of non-radiolabelled example compound 1 in the range of 400 pM to 2 μM for two hours at RT. […] The filters were analyzed on a Microbeta2 scintillation counter (PerkinElmer). […]

T2 sequence (P05067 672-713 limits assumed): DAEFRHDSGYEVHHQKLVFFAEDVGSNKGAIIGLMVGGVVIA

Competition at 100 nM (%) ([1]; 100 nM non-radiolabelled example compound vs Example-1 [^3H-1] ligand, human PD brain-derived a-syn aggregates): 58%
Competition at 1 μM (%) ([1]; 1 μM non-radiolabelled example compound vs Example-1 [^3H-1] ligand, human PD brain-derived a-syn aggregates): 92%
Ki ([1]; mean of Ki values in independent experiments using PD brain-derived homogenates from three different donors): 0.05 µM
Ki [2]: 0.297 µM
SMILES: Cn1cc(N2Cc3nn(-c4ccc(N5CC[C@@H](F)C5)nc4)cc3C2=O)cn1 [Example 4]
